This note sets out measurements from US10765745B2, “Multifunctional nanoparticle systems and methods for cancer diagnosis and combination therapy” (BOARD OF REGENTS, THE UNIVERSITY OF TEXAS SYSTEM, priority 2015, dated 2020).

Data set [1] has as its system human dermal fibroblasts (HDFs). Briefly: 24-hour cytocompatibility (MTS and Picogreen dsDNA). The settings on record: 10 μM. The format is cell-based. On the procedure: (§1) Human dermal fibroblasts (HDFs) and AT1 cells were seeded at a density of 5000 cells/well in a 96 well plate and allowed to attach at 37° C. and 5% CO2 for 24 hours. […] Following incubation, the cells were washed with 1× sterile PBS and cell viability was assessed using MTS and Picogreen dsDNA assays (e.g., available from Life Technologies, located in Grand Island, N.Y.) according to manufacturer's instructions. MTS assay measures the percentage of cells alive in each well compared to the controls. These findings were validated using Picogreen dsDNA assay which calculates the amount of total cell DNA present in each well compared to the control.

Data set [2] deals with AT1 cells. Described as above. Type of data set: cell-based, human. The settings on record: 10 μM. On the procedure:
as §1

For data set [3], the system named is folate receptors on AT1 cells. Briefly: Folic acid binding, Resonant Sensors Bioassay (peak shift). Details: species or system human. The following applies: 0-15 μM, 3 hours. As to the method: (§2) The binding of folic acid to folate receptors was studied using Resonant Sensors Bioassay system (e.g., available from Resonant Sensors Inc. (RSI), located in Arlington, Tex.). A549 and H460 lung cancer cells as well as AT1 cells were seeded at a density of 10,000 cells/well in RSI sensor 96-well plates, which were incubated at […] for 24 hours to allow cell attachment. For folic acid binding efficiency studies, the cells were incubated with folic acid at varying concentrations (i.e., 0, 0.1, 1, 5, 10, 15 μM) for 3 hours in the RSI system and peak shift with cell binding over time was studied.

Data set [4] relates to folate receptors on A549 lung cancer cells. The description is as above. The following applies: 0-15 μM, 3 hours. On the procedure: as §2
In data set [5] the test system is folate receptors on H460 lung cancer cells. The description is as above. The settings on record: 0-15 μM, 3 hours. As to the method:
as §2

For another data set, the system named is human AT1 cells. Put plainly: Cell activation study: intracellular ROS production (H2DCFDA). The settings on record: positive control, 10 μg/ml. Type of data set: cell-based. On the procedure: A cell activation study was conducted to determine whether NP uptake causes oxidative stress in the cells in vitro. For example, human AT1 cells were seeded in tissue culture plates and incubated overnight as described earlier. The next day, cells were exposed to two different concentrations of each NP (250 μg/ml and 1000 μg/ml) and incubated for another 24 hours. Cells exposed to 10 μg/ml lipopolysaccharide (LPS) were considered as a positive control while cells exposed to media only served as the negative control. To detect the Intracellular Reactive Oxygen Species (ROS) production on NP exposure, cells were then washed thrice with PBS and incubated with 5 μM of 2′,7′-dichlorodihydrofluorescein diacetate (H2DCFDA) solution in PBS for 30 minutes. The cells were then washed again with PBS and fluorescence was measured at λex of 485 nm and […] using a spectrophotometer.
(§3) To study cytokine production, the concentration of interleukin-1 alpha (IL-1∞), interleukin-1 beta (IL-1β), interleukins 2, 4, 6, 8, 10, 12, 10A, and tumor necrosis factor-alpha (TNF-α) in the medium was measured using Multi-Analyte ELISAArray Kit (SA Biosciences, Frederick, Md.) according to the manufacturer's directions.

Data set [6] deals with AT1 cells. Briefly: Cell activation study: cytokine ELISA. Type of data set: cell-based, human. The following applies: 24 hours; MDNPs at 1 mg/mL; LPS positive control. On the procedure: as §3
The cells stimulated using LPS (positive control) produced 0.25 ng/ml IL-6, 1.27 ng/ml IL-8, 0.24 ng/ml IL-10 and 0.11 ng/ml TNF-α inflammatory cytokines.
A general note: ELISA stands for enzyme-linked immunosorbent assay.

Consider `Nc1nc2ncc(CNc3ccc(C(=O)N[C@@H](CCC(=O)O)C(=O)O)cc3)nc2c(=O)[nH]1` [folic acid], for which the “cytocompatibility (MTS)” value (in data set [1]; in the data set on AT1 cells [2]) was “non-toxic” throughout. The peak shift entry in data set [3] is “no dose-dependent increase in peak shift”; in data set [4] it was “increase in peak shift”; in data set [5], “comparatively larger peak shift”.

On to lipopolysaccharide [LPS], for which, in the data set with human AT1 cells, the “ROS production, % of the control” value worked out at 425%. Besides, in the data set with AT1 cells [6], the IL-6 produced was 0.25 ng/mL, the IL-8 produced worked out at 1.27 ng/mL, the IL-10 produced was 0.24 ng/mL and the TNF-α produced worked out at 0.11 ng/mL.
